# Measurements reported in US20240262866A1, “METHOD FOR PREPARING ANIDULAFUNGIN DERIVATIVE” (Shanghai Senhui Medicine Co., Ltd., priority 2021, published 2024).
# Where two headings read alike, the source gives them in different places. *1 amine or outer side, *2 acyl side, *3 side chain or, on linkers, in order; H or OH if unused. Where a SMILES comes first, the peptide text is derived from it. Bridges are numbered along the chain shown (N, C = ends). [ ]: non-standard residue; d: D form. The star is where a group is joined. pTerphenylCO(4''-OnC5H11) = CCCCCOc1ccc(-c2ccc(-c3ccc(C(=O)*)cc3)cc2)cc1; Orn(4R-OH,5R-OH) = O=C([C@H](C[C@@H](O)[C@@H](O)N[*:3])N[*:1])[*:2]; hTyr(3S-OH,4S-OH) = N[C@H](C(=O)O)[C@H](O)[C@@H](O)c1ccc(O)cc1; Pro(3S-OH,4S-Me) = C[C@H]1CN[C@H](C(=O)O)[C@H]1O; Hyp = O=C(O)[C@@H]1C[C@@H](O)CN1
# Columns and labels:
# [1] = test system: Aspergillus flavus ATCC 28539; experiment: MEC assay (CLSI M38-A2), Aspergillus flavus ATCC 28539; format: cell-based; conditions: first batch; 28° C., 21-26 h
# Experimental: (§1) After a test compound was serially diluted, an MIC (minimum inhibitory concentration) assay was performed on the standard Candida strain and an MEC (minimum effective concentration) assay on the standard Aspergillus strain. The MIC assay was performed according to the guidelines of the Clinical and Laboratory Standards Institute (CLSI M27-A3) and the MEC assay according to the guidelines of the Clinical and Laboratory Standards Institute (CLSI M38-A2).
# Aspergillus was passaged onto an SDA plate and cultured at 35° C. for 48 h to 7 d to induce sporulation. Colonies on the plate were covered with about 1 mL of 0.85% normal saline or sterile water (polysorbate 20 was added at a final concentration of 0.1%-0.01%). The medium was gently wiped on its surface with a tip or a sterile cotton swab (be careful not to break the medium), and the spore hyphae suspension was transferred to a sterile tube and let stand for 3-5 min so that the heavy particles settled. The homogeneous upper layer of the suspension was transferred to a new sterile tube, which was then sealed and vortexed for 15 s (be careful as the suspension may produce an aerosol when the cover is removed). The concentration of the suspension was adjusted until an OD value of 0.09-0.13 was achieved using a spectrophotometer at 530 nm. The suspension was 50-fold diluted with 1×RPMI 1640. 100 μL of sample was added to each well of the 96-well plate within 2 h after dilution (the final spore concentration in the susceptibility testing plate was at 0.4×10^4 to 5×10^4 CFU/mL).
# Colony counting: The suspension diluted with RPMI 1640 was further diluted 10-fold, and 10 μL of the dilution was applied to an SDA plate, cultured at 28° C., and observed every day; colonies were immediately counted upon being visible to the naked eye.
# (§2) For echinocandin drugs, Aspergillus was incubated at 28° C. for 21-26 h, and then the MEC results were read.
# (§3) • Yeast-type fungi: A disposable sealing film was applied to the 96-well plate, and the mixture was well mixed by shaking. Observation was performed through a plate reader with the naked eye. Comparisons were made to the growth control, and the minimum compound concentration corresponding to ≥50% growth inhibition was defined as MIC. Pictures were taken and saved using an automatic plate reader. • Aspergillus: For echinocandin drugs, comparisons were made to the growth control under a plate reader, and the minimum drug concentration that could cause the hyphae to form small, round, compact hyphal particles was defined as MEC. For accurate determination of MEC values, the plate must not be vortexed before reading.
# [2] = test system: plasma histamine; experiment: Plasma histamine assay after single intravenous injection; format: in vivo, SD rats
# Experimental: (§4) 12 SD rats were divided into 2 groups of 6 (half are male and half female). […] The body weights were measured once before administration. Administration was performed by single intravenous injection for 20 min per animal. PK measurement was performed once before administration and 5 min, 30 min, 1 h, 4 h, 8 h, 24 h, 48 h, 72 h and 96 h after administration. A histamine assay was performed once before administration and 30 min, 4 h, 8 h and 24 h after administration.
# [3] = Pharmacokinetic study after single intravenous injection; format: in vivo, SD rats; conditions: Sprague-Dawley, rat, plasma, 10 mg/kg i.v.; for AUC(0-t): read-out: AUC0-96; for Vd: read-out: VdSS
# Experimental: as §4
# [4] = test system: Candida albicans ATCC 90029; experiment: MIC assay (CLSI M27-A3), Candida albicans ATCC 90029; format: cell-based; conditions: first batch; 24 h, ≥50% growth inhibition
# Experimental: as §1
# (§5) The frozen strain was passaged at least twice, and a single colony was picked and resuspended in normal saline or sterile water in a tube. […]
# as §2
# as §3, with “Comparisons were made to the growth control, and the minimum compound concentration corresponding to ≥50% growth inhibition was defined as MIC.” left out
# [5] = test system: Candida glabrata ATCC 15126; experiment: MIC assay (CLSI M27-A3), Candida glabrata ATCC 15126; format: cell-based; conditions: first batch; 24 h, ≥50% growth inhibition
# Experimental: as §1, §5, §2
# as §3, with “Comparisons were made to the growth control, and the minimum compound concentration corresponding to ≥50% growth inhibition was defined as MIC.” left out
# [6] = test system: Candida parapsilosis ATCC 22019; experiment: MIC assay (CLSI M27-A3), Candida parapsilosis ATCC 22019; format: cell-based; conditions: first batch; 24 h, ≥50% growth inhibition; quality control strain
# Experimental: as §1, §5, §2
# as §3, with “Comparisons were made to the growth control, and the minimum compound concentration corresponding to ≥50% growth inhibition was defined as MIC.” left out
# [7] = test system: Candida krusei ATCC 6258; experiment: MIC assay (CLSI M27-A3), Candida krusei ATCC 6258; format: cell-based; conditions: first batch; 24 h, ≥50% growth inhibition; quality control strain
# Experimental: as §1, §5, §2
# as §3, with “Comparisons were made to the growth control, and the minimum compound concentration corresponding to ≥50% growth inhibition was defined as MIC.” left out
# [8] = test system: Meyerozyma guilliermondii ATCC 6260; experiment: MIC assay (CLSI M27-A3), Meyerozyma guilliermondii ATCC 6260; format: cell-based; conditions: first batch; 24 h, ≥50% growth inhibition
# Experimental: as §1, §5, §2
# as §3, with “Comparisons were made to the growth control, and the minimum compound concentration corresponding to ≥50% growth inhibition was defined as MIC.” left out
# [9] = test system: Candida tropicalis ATCC 750; experiment: MIC assay (CLSI M27-A3), Candida tropicalis ATCC 750; format: cell-based; conditions: first batch; 24 h, ≥50% growth inhibition
# Experimental: as §1, §5, §2
# as §3, with “Comparisons were made to the growth control, and the minimum compound concentration corresponding to ≥50% growth inhibition was defined as MIC.” left out
# [10] = test system: Candida albicans ATCC 90028; experiment: MIC assay (CLSI M27-A3), Candida albicans ATCC 90028; format: cell-based; conditions: second batch
# Experimental: as §1, §5, §2
# as §3, with “Comparisons were made to the growth control, and the minimum compound concentration corresponding to ≥50% growth inhibition was defined as MIC.” left out
# [11] = test system: Candida albicans ATCC 44858; experiment: MIC assay (CLSI M27-A3), Candida albicans ATCC 44858; format: cell-based; conditions: second batch; 24 h
# Experimental: as §1, §5, §2
# as §3, with “Comparisons were made to the growth control, and the minimum compound concentration corresponding to ≥50% growth inhibition was defined as MIC.” left out
# [12] = test system: Candida glabrata ATCC 36583; experiment: MIC assay (CLSI M27-A3), Candida glabrata ATCC 36583; format: cell-based; conditions: second batch; 24 h
# Experimental: as §1, §5, §2
# as §3, with “Comparisons were made to the growth control, and the minimum compound concentration corresponding to ≥50% growth inhibition was defined as MIC.” left out
# [13] = test system: Candida albicans (azole drug-resistant strain) R357; experiment: MIC assay (CLSI M27-A3), Candida albicans azole drug-resistant strain R357; format: cell-based; conditions: second batch; 24 h
# Experimental: as §1, §5, §2
# as §3, with “Comparisons were made to the growth control, and the minimum compound concentration corresponding to ≥50% growth inhibition was defined as MIC.” left out
# [14] = test system: Candida albicans (azole drug-resistant strain) R358; experiment: MIC assay (CLSI M27-A3), Candida albicans azole drug-resistant strain R358; format: cell-based; conditions: second batch; 24 h
# Experimental: as §1, §5, §2
# as §3, with “Comparisons were made to the growth control, and the minimum compound concentration corresponding to ≥50% growth inhibition was defined as MIC.” left out
# [15] = test system: Candida tropicalis (amphotericin-resistant strain) ATCC 200956; experiment: MIC assay (CLSI M27-A3), Candida tropicalis amphotericin-resistant strain ATCC 200956; format: cell-based; conditions: second batch; 24 h
# Experimental: as §1, §5, §2
# as §3, with “Comparisons were made to the growth control, and the minimum compound concentration corresponding to ≥50% growth inhibition was defined as MIC.” left out
# [16] = test system: SD rats; experiment: General state observation after single intravenous injection; format: in vivo; conditions: 10 mg/kg single intravenous injection, day of administration
# Experimental: as §4
compound,measurement,setting,value
CCCCCOc1ccc(-c2ccc(-c3ccc(C(=O)N[C@H]4C[C@@H](O)[C@@H](OC[C@H]5CCC[N+]5(C)C)NC(=O)[C@@H]5[C@@H](O)[C@@H](C)CN5C(=O)[C@H]([C@@H](C)O)NC(=O)[C@H]([C@H](O)[C@@H](O)c5ccc(O)cc5)NC(=O)[C@@H]5C[C@@H](O)CN5C(=O)[C@H]([C@@H](C)O)NC4=O)cc3)cc2)cc1 [Compound of formula (I)],MEC Aspergillus flavus ATCC 28539,[1],0.031 µg/mL
same,ability to induce increases in the histamine level in rats,"[2]; same dose (10 mg/kg) i.v., compared with rezafungin acetate",significantly lower
same,AUC(0-inf),[3]; female SD rats,195 µg·h/mL
same,Cmax,[3]; female SD rats,9300 ng/mL
same,clearance,[3]; female SD rats,0.9 mL/min/kg
same,half-life,[3]; female SD rats,25.5 h
same,AUC(0-t),[3]; female SD rats,180 µg·h/mL
same,Vd,[3]; female SD rats,1.8 L/kg
same,AUC(0-inf),[3]; male SD rats,191 µg·h/mL
same,Cmax,[3]; male SD rats,8000 ng/mL
same,clearance,[3]; male SD rats,0.9 mL/min/kg
same,half-life,[3]; male SD rats,27.7 h
same,AUC(0-t),[3]; male SD rats,174 µg·h/mL
same,Vd,[3]; male SD rats,1.9 L/kg
"CCCCCOc1ccc(-c2ccc(-c3ccc(C(=O)N[C@H]4C[C@@H](O)[C@@H](O)NC(=O)[C@@H]5[C@@H](O)[C@@H](C)CN5C(=O)[C@H]([C@@H](C)O)NC(=O)[C@H]([C@H](O)[C@@H](O)c5ccc(O)cc5)NC(=O)[C@@H]5C[C@@H](O)CN5C(=O)[C@H]([C@@H](C)O)NC4=O)cc3)cc2)cc1 [Anidulafungin] ({pTerphenylCO(4''-OnC5H11)}-[Orn(4R-OH,5R-OH)]T[Hyp][hTyr(3S-OH,4S-OH)]T[Pro(3S-OH,4S-Me)]; lactam 1-C)",MEC Aspergillus flavus ATCC 28539,[1],0.031 µg/mL
Caspofungin acetate,MIC Candida albicans ATCC 90029,[4],0.063 µg/mL
same,MIC Candida glabrata ATCC 15126,[5],0.25 µg/mL
same,MIC Candida parapsilosis ATCC 22019,[6],1 µg/mL
same,MIC Candida krusei ATCC 6258,[7],1 µg/mL
same,MIC Meyerozyma guilliermondii ATCC 6260,[8],1 µg/mL
same,MIC Candida tropicalis ATCC 750,[9],0.016 µg/mL
same,MEC Aspergillus flavus ATCC 28539,[1],0.031 µg/mL
Rezafungin acetate,MIC Candida albicans ATCC 90029,[4],0.125 µg/mL
same,MIC Candida glabrata ATCC 15126,[5],0.125 µg/mL
same,MIC Candida parapsilosis ATCC 22019,[6],2 µg/mL
same,MIC Candida krusei ATCC 6258,[7],0.25 µg/mL
same,MIC Meyerozyma guilliermondii ATCC 6260,[8],2 µg/mL
same,MIC Candida tropicalis ATCC 750,[9],0.016 µg/mL
same,MEC Aspergillus flavus ATCC 28539,[1],0.031 µg/mL
same,MIC Candida albicans ATCC 90028,[10]; 24 h,0.25 µg/mL
same,MIC Candida albicans + 50% human serum ATCC 90028,[10]; + 50% human serum,0.25 µg/mL
same,MIC Candida albicans ATCC 44858,[11],0.25 µg/mL
same,MIC Candida glabrata ATCC 36583,[12],0.25 µg/mL
same,MIC Candida albicans (azole drug-resistant strain) R357,[13],0.25 µg/mL
same,MIC Candida albicans (azole drug-resistant strain) R358,[14],0.25 µg/mL
same,MIC Candida tropicalis (amphotericin-resistant strain) ATCC 200956,[15],0.25 µg/mL
same,fold higher mean plasma histamine concentration than group 1,"[2]; 30 min after administration, 10 mg/kg i.v., p=0.046",4.5 times
same,general state observation,[16],transient slight decrease in activity occurred in 2 females
